# Data as given in PMC8037182, “Solvothermal Synthesis of Multiple Dihydropyrimidinones at a Time as Inhibitors of Eg5” (Molecules, 2021).
# Test system: Caco-2 cell line
# Assay: Cytotoxicity MTS assay, Caco-2 cell line
# Type: cell-based
# Conditions: for OD490 Mean / OD490 Well 1 / OD490 Well 2 / OD490 Well 3: Caco-2 cell line; for IC50: MTS assay, 24 h exposure
# Method: The positive compounds (IC50 < 100 μM) obtained from the primary Eg5 motor protein ATPase assay were tested for antiproliferative activity in vitro against Caco-2 cell line, Hela cell line, L929 cell line and T24 cell line by performing MTS assay. Cells were introduced into 96-well plates at a density of 1000 cells per well. After 24 h incubation, the cells were exposed with compounds at final concentrations ranging from 0.5 to 100 µM for 24 h. DMSO was used at a final concentration of 0.025% as blank control, monastrol was used as the positive control. Then 20 µL (CellTiter 96® AQueous One Solution Promega, Madison, WI, USA) reagent was added in each well. After 2 h at 37 °C in a 80% humidified, 5% CO2 atmosphere, the absorbance at 490 nm was recorded using a microplate reader (BIO-RAD iMark^TM). The results were obtained in three independent duplicate experiments. The primary data were shown in Supplementary Materials Tables S4–S7. The IC50 values for these compounds were calculated from a non-linear regression graph plotted between the percentage of cell viability and concentration with SPSS17.0 software.
compound,measurement,setting,value
CCOC(=O)c1c(C2NC(=O)NC(C)=C2C(=O)Nc2ccccc2C)[nH]c(C(=O)OC)c1C (centres unmarked) [D2],OD490 Mean,"0.5μM, first assay",0.6270
same,OD490 Well 1,"0.5μM, first assay",0.5887
same,OD490 Well 2,"0.5μM, first assay",0.6362
same,OD490 Well 3,"0.5μM, first assay",0.6562
same,OD490 Mean,"0.5μM, second assay",0.7070
same,OD490 Well 1,"0.5μM, second assay",0.7084
same,OD490 Well 2,"0.5μM, second assay",0.7002
same,OD490 Well 3,"0.5μM, second assay",0.7123
same,OD490 Mean,"0.5μM, third assay",0.6851
same,OD490 Well 1,"0.5μM, third assay",0.4885
same,OD490 Well 2,"0.5μM, third assay",0.8254
same,OD490 Well 3,"0.5μM, third assay",0.7414
same,OD490 Mean,"1μM, first assay",0.6349
same,OD490 Well 1,"1μM, first assay",0.5288
same,OD490 Well 2,"1μM, first assay",0.6946
same,OD490 Well 3,"1μM, first assay",0.6813
same,OD490 Mean,"1μM, second assay",0.7459
same,OD490 Well 1,"1μM, second assay",0.7813
same,OD490 Well 2,"1μM, second assay",0.6848
same,OD490 Well 3,"1μM, second assay",0.7716
same,OD490 Mean,"1μM, third assay",0.6746
same,OD490 Well 1,"1μM, third assay",0.6245
same,OD490 Well 2,"1μM, third assay",0.7010
same,OD490 Well 3,"1μM, third assay",0.6982
same,OD490 Mean,"10μM, first assay",0.6116
same,OD490 Well 1,"10μM, first assay",0.5314
same,OD490 Well 2,"10μM, first assay",0.6140
same,OD490 Well 3,"10μM, first assay",0.6893
same,OD490 Mean,"10μM, second assay",0.7407
same,OD490 Well 1,"10μM, second assay",0.7116
same,OD490 Well 2,"10μM, second assay",0.7395
same,OD490 Well 3,"10μM, second assay",0.771
same,OD490 Mean,"10μM, third assay",0.6639
same,OD490 Well 1,"10μM, third assay",0.7421
same,OD490 Well 2,"10μM, third assay",0.5621
same,OD490 Well 3,"10μM, third assay",0.6874
same,OD490 Mean,"25μM, first assay",0.6114
same,OD490 Well 1,"25μM, first assay",0.5587
same,OD490 Well 2,"25μM, first assay",0.6570
same,OD490 Well 3,"25μM, first assay",0.6185
same,OD490 Mean,"25μM, second assay",0.6775
same,OD490 Well 1,"25μM, second assay",0.5825
same,OD490 Well 2,"25μM, second assay",0.7137
same,OD490 Well 3,"25μM, second assay",0.7364
same,OD490 Mean,"25μM, third assay",0.6183
same,OD490 Well 1,"25μM, third assay",0.6214
same,OD490 Well 2,"25μM, third assay",0.6325
same,OD490 Well 3,"25μM, third assay",0.6010
same,OD490 Mean,"50μM, first assay",0.5907
same,OD490 Well 1,"50μM, first assay",0.6013
same,OD490 Well 2,"50μM, first assay",0.6084
same,OD490 Well 3,"50μM, first assay",0.5625
same,OD490 Mean,"50μM, second assay",0.5350
same,OD490 Well 1,"50μM, second assay",0.5688
same,OD490 Well 2,"50μM, second assay",0.5038
same,OD490 Well 3,"50μM, second assay",0.5324
same,OD490 Mean,"50μM, third assay",0.5761
same,OD490 Well 1,"50μM, third assay",0.6025
same,OD490 Well 2,"50μM, third assay",0.5936
same,OD490 Well 3,"50μM, third assay",0.5321
same,OD490 Mean,"100μM, first assay",0.4815
same,OD490 Well 1,"100μM, first assay",0.4762
same,OD490 Well 2,"100μM, first assay",0.4852
same,OD490 Well 3,"100μM, first assay",0.4831
same,OD490 Mean,"100μM, second assay",0.5288
same,OD490 Well 1,"100μM, second assay",0.5278
same,OD490 Well 2,"100μM, second assay",0.5253
same,OD490 Well 3,"100μM, second assay",0.5332
same,OD490 Mean,"100μM, third assay",0.5185
same,OD490 Well 1,"100μM, third assay",0.5637
same,OD490 Well 2,"100μM, third assay",0.4985
same,OD490 Well 3,"100μM, third assay",0.4932
same,IC50,,116 µM
CCOC(=O)c1[nH]c(C2NC(=O)NC(C)=C2C(=O)Nc2ccccc2OC)c(C(=O)OC)c1C (centres unmarked) [D3],OD490 Mean,"0.5μM, first assay",0.6387
same,OD490 Well 1,"0.5μM, first assay",0.6262
same,OD490 Well 2,"0.5μM, first assay",0.6384
same,OD490 Well 3,"0.5μM, first assay",0.6515
same,OD490 Mean,"0.5μM, second assay",0.7146
same,OD490 Well 1,"0.5μM, second assay",0.7283
same,OD490 Well 2,"0.5μM, second assay",0.7863
same,OD490 Well 3,"0.5μM, second assay",0.6291
same,OD490 Mean,"0.5μM, third assay",0.6707
same,OD490 Well 1,"0.5μM, third assay",0.6256
same,OD490 Well 2,"0.5μM, third assay",0.6879
same,OD490 Well 3,"0.5μM, third assay",0.6985
same,OD490 Mean,"1μM, first assay",0.6598
same,OD490 Well 1,"1μM, first assay",0.6405
same,OD490 Well 2,"1μM, first assay",0.6612
same,OD490 Well 3,"1μM, first assay",0.6777
same,OD490 Mean,"1μM, second assay",0.6524
same,OD490 Well 1,"1μM, second assay",0.6596
same,OD490 Well 2,"1μM, second assay",0.7226
same,OD490 Well 3,"1μM, second assay",0.5749
same,OD490 Mean,"1μM, third assay",0.7014
same,OD490 Well 1,"1μM, third assay",0.6954
same,OD490 Well 2,"1μM, third assay",0.6888
same,OD490 Well 3,"1μM, third assay",0.7201
same,OD490 Mean,"10μM, first assay",0.6769
same,OD490 Well 1,"10μM, first assay",0.6754
same,OD490 Well 2,"10μM, first assay",0.6571
same,OD490 Well 3,"10μM, first assay",0.6982
same,OD490 Mean,"10μM, second assay",0.7108
same,OD490 Well 1,"10μM, second assay",0.7146
same,OD490 Well 2,"10μM, second assay",0.7063
same,OD490 Well 3,"10μM, second assay",0.7114
same,OD490 Mean,"10μM, third assay",0.7093
same,OD490 Well 1,"10μM, third assay",0.6912
same,OD490 Well 2,"10μM, third assay",0.7365
same,OD490 Well 3,"10μM, third assay",0.7003
same,OD490 Mean,"25μM, first assay",0.6846
same,OD490 Well 1,"25μM, first assay",0.6410
same,OD490 Well 2,"25μM, first assay",0.7249
same,OD490 Well 3,"25μM, first assay",0.6880
same,OD490 Mean,"25μM, second assay",0.6529
same,OD490 Well 1,"25μM, second assay",0.662
same,OD490 Well 2,"25μM, second assay",0.6871
same,OD490 Well 3,"25μM, second assay",0.6097
same,OD490 Mean,"25μM, third assay",0.6888
same,OD490 Well 1,"25μM, third assay",0.6989
same,OD490 Well 2,"25μM, third assay",0.6784
same,OD490 Well 3,"25μM, third assay",0.6891
same,OD490 Mean,"50μM, first assay",0.7773
same,OD490 Well 1,"50μM, first assay",0.7708
same,OD490 Well 2,"50μM, first assay",0.7874
same,OD490 Well 3,"50μM, first assay",0.7736
same,OD490 Mean,"50μM, second assay",0.7093
same,OD490 Well 1,"50μM, second assay",0.7521
same,OD490 Well 2,"50μM, second assay",0.7258
same,OD490 Well 3,"50μM, second assay",0.6501
same,OD490 Mean,"50μM, third assay",0.7169
same,OD490 Well 1,"50μM, third assay",0.6532
same,OD490 Well 2,"50μM, third assay",0.7354
same,OD490 Well 3,"50μM, third assay",0.7621
same,OD490 Mean,"100μM, first assay",0.5588
same,OD490 Well 1,"100μM, first assay",0.5950
same,OD490 Well 2,"100μM, first assay",0.5357
same,OD490 Well 3,"100μM, first assay",0.5456
same,OD490 Mean,"100μM, second assay",0.7013
same,OD490 Well 1,"100μM, second assay",0.7196
same,OD490 Well 2,"100μM, second assay",0.6757
same,OD490 Well 3,"100μM, second assay",0.7086
same,OD490 Mean,"100μM, third assay",0.7231
same,OD490 Well 1,"100μM, third assay",0.7561
same,OD490 Well 2,"100μM, third assay",0.7145
same,OD490 Well 3,"100μM, third assay",0.6987
same,IC50,,> 150 µM
